Tests used:
[1] = Solubility and storage stability of C10 solutions; type: physicochemical
From the text: In the studies described in Table 5, C10 was formulated in DMSO and administered i.p. DMSO was used due to the low solubility of C10 in aqueous environments but can have well documented independent effects (M. S. Ivanovic, et al., Toxicology Letters, 147:153-159 (2004))]. […] To circumvent these issues, we used a proprietary cyclodextrin (CD) excipient that is approved by the FDA for use in humans to make an aqueous formulation of C10. […] In a test using LPS-induced toxic shock, oral excipient-solubilized C10, stored in diluted form at 4° C. for 8 weeks, was as effective in preventing death as was freshly made C10 i.p. in DMSO at the same 1 mg/kg dose.

[2] = system: Stat1; assay: Stat1 phosphorylation in Influenza A infected FRTL-5 thyrocytes (Western blot); type: cell-based, rat
Protocol: FIG. 6. Phenylmethimazole (C10) has no effect on the ability of Poly (I:C) or LPS to increase formation of the p50/p65 heterodimer complex of […] (A), but can inhibit the Influenza A induced activation of Stat1 phosphorylation in FRTL-5 thyrocytes (B). In (A), EMSA were performed using nuclear extracts from cells which were treated with nothing (none), Poly (I:C) (100 μg/ml), LPS (100 ng/ml), in the presence of DMSO, C10, or MMI for 6 hours. Probe was the NF-κβ consensus oligonucleotide. The p65/p50 and p50/p50 complexes are indicated and were identified as in FIG. 2B by antibody inhibition or supershifts of the p50 or p65 components of the induced complexes. In (B), cells were infected with Influenza A for 24 hours and then DMSO or C10 were added to the medium for 6 hours. In each, 25 μg of nuclear extracts were used in Western blots performed to detect Stat1 PY701. Blots were then stripped and reprobed for unphosphorylated Stat1. The first lane is a non infected control (−).
Immunoprecipitation and Western Blot Analysis. Whole cell lysates were prepared in lysis buffer (10 mM Tris-HCl (pH 7.5), 150 mM NaCl, 1% NP-40) containing protease inhibitors. Nuclear extracts were prepared using the NE-PER extraction reagents with protease inhibitors stated below (Pierce Chemical Co., Rockford, Ill.). […]

[3] = system: mice; details: mouse, in vivo; cited from earlier work
[4] = system: TLR4 signaled genes; assay: Gene expression in organs of LPS-treated mice (Northern, RT-PCR); type: in vivo, mouse

Cn1c(-c2ccccc2)cnc1S [Compound C10, 5-Phenylmethimazole]
solubility in aqueous environments [1]: low | stability of C10 solubilized in DMSO and diluted to a working concentration [1]: not stable for prolonged periods of time | activity of C10 diluted in DMSO and stored in diluted form ([1]; stored at either 4° C. or −70° C., in vitro or in vivo): inactive | virus- or IFN-β-stimulated Stat1 phosphorylation (PY701) ([2]; FRTL-5, Influenza A 24 hours then C10 6 hours): profound inhibitor | Stat1 serine phosphorylation at residue 727 ([2]; FRTL-5, Influenza A virus 24 hours, 1 mM C10): reduce | inflammatory response and survival in DSS induced colitis [3]: suppress the inflammatory response and improve survival | pro-inflammatory cytokine gene expression (TNF α, IL-1β, IL-6, IL-12, IFN γ) in spleen, liver, lung, kidney, heart ([4]; LPS injected mice at 24 hours, Northern): suppressed | LPS-induced over-expression of IRF-1, IP-10 and MCP-1 RNA in organs ([4]; LPS-treated mice of Table 5, Northern): suppressed | LPS-elevated COX-2 RNA levels ([4]; kidney, liver and lung, RT-PCR): completely suppressed and returned to normal | LPS-down-regulated COX-1 RNA levels ([4]; organs of LPS treated mice, RT-PCR): returned RNA levels to the normal levels | LPS-increased iNOS RNA levels ([4]; spleen, liver, lung, kidney, heart, RT-PCR): suppressed

Source: patent publication US9326972B2, “Use of phenylmethimazoles, methimazole derivatives, and tautomeric cyclic thiones for the treatment of autoimmune/inflammatory diseases associated with toll-like receptor overexpression” (Ohio University, priority 2004, dated 2016)
